# Test system: 12 single or co-culture in vitro tissue models of primary cells
# Experiment: Culture/co-culture cell model panel, extracellular biomarkers (DiscoveRx); for CCL2/MCP-1: reference of the scale not given here; for CXCL8/IL-8: reference of the scale not given here; for CXCL9/MIG: reference of the scale not given here; for M-CSF: reference of the scale not given here; for SRB: reference of the scale not given here
# Assay type: cell-based, human
# [1] = /HDFNo unstimulated fibroblasts, 1.00E0 nM
# [2] = /HDFNo unstimulated fibroblasts, 1.00E1 nM
# [3] = /HDFNo unstimulated fibroblasts, 1.00E2 nM
# [4] = /HDFNo unstimulated fibroblasts, 1.00E3 nM
# [5] = /HDFNo unstimulated fibroblasts, 1.00E4 nM
compound,measurement,setting,value
Cn1ncc2cc(-c3cnc(N)c(Cl)c3N3CCC4(CCNC4=O)CC3)ccc21 [CMPD 3],Collagen I,"/HDF3CT, 1.00E3 nM",0.027
same,M-CSF,"/HDF3CT, 1.00E3 nM",-0.00149
same,MMP-1,"/HDF3CT, 1.00E3 nM",0.040
same,PAI-I,"/HDF3CT, 1.00E3 nM",-0.123
same,SRB,"/HDF3CT, 1.00E3 nM",0.00334
same,TIMP-2,"/HDF3CT, 1.00E3 nM",0.107
same,CCL2/MCP-1,"/HDF3CT, 1.00E4 nM",-0.053
same,CD54/ICAM-1,"/HDF3CT, 1.00E4 nM",-0.081
same,CD106/VCAM-1,"/HDF3CT, 1.00E4 nM",0.009
same,CXCL8/IL-8,"/HDF3CT, 1.00E4 nM",-0.144
same,CXCL9/MIG,"/HDF3CT, 1.00E4 nM",-0.049
same,CXCL10/IP-10,"/HDF3CT, 1.00E4 nM",-0.00029
same,Collagen I,"/HDF3CT, 1.00E4 nM",0.010
same,M-CSF,"/HDF3CT, 1.00E4 nM",-0.092
same,MMP-1,"/HDF3CT, 1.00E4 nM",0.107
same,PAI-I,"/HDF3CT, 1.00E4 nM",-0.208
same,SRB,"/HDF3CT, 1.00E4 nM",-0.230
same,TIMP-2,"/HDF3CT, 1.00E4 nM",0.271
same,CXCL8/IL-8,[1],0.059
same,CXCL9/MIG,[1],0.119
same,CXCL10/IP-10,[1],0.034
same,CXCL11/I-TAC,[1],0.074
same,EGFR,[1],0.022
same,M-CSF,[1],0.066
same,MMP-1,[1],0.081
same,PAI-I,[1],0.044
same,Proliferation_72hr,[1],-0.013
same,SRB,[1],0.039
same,TIMP-1,[1],0.047
same,TIMP-2,[1],0.100
same,CXCL8/IL-8,[2],0.037
same,CXCL9/MIG,[2],0.058
same,CXCL10/IP-10,[2],0.054
same,CXCL11/I-TAC,[2],-0.002
same,EGFR,[2],0.009
same,M-CSF,[2],0.048
same,MMP-1,[2],0.040
same,PAI-I,[2],-0.042
same,Proliferation_72hr,[2],0.000939
same,SRB,[2],0.011
same,TIMP-1,[2],0.040
same,TIMP-2,[2],0.045
same,CXCL8/IL-8,[3],0.041
same,CXCL9/MIG,[3],0.091
same,CXCL10/IP-10,[3],0.056
same,CXCL11/I-TAC,[3],-0.021
same,EGFR,[3],0.019
same,M-CSF,[3],0.020
same,MMP-1,[3],0.030
same,PAI-I,[3],-0.011
same,Proliferation_72hr,[3],0.020
same,SRB,[3],-0.014
same,TIMP-1,[3],-0.015
same,TIMP-2,[3],0.091
same,CXCL8/IL-8,[4],0.013
same,CXCL9/MIG,[4],0.053
same,CXCL10/IP-10,[4],0.0016
same,CXCL11/I-TAC,[4],-0.010
same,EGFR,[4],0.012
same,M-CSF,[4],-0.000464
same,MMP-1,[4],0.050
same,PAI-I,[4],-0.034
same,Proliferation_72hr,[4],0.048
same,SRB,[4],-0.021
same,TIMP-1,[4],0.010
same,TIMP-2,[4],0.080
same,CXCL8/IL-8,[5],0.011
same,CXCL9/MIG,[5],-0.074
same,CXCL10/IP-10,[5],-0.076
same,CXCL11/I-TAC,[5],0.023
same,EGFR,[5],0.045
same,M-CSF,[5],0.010
same,MMP-1,[5],0.054
same,PAI-I,[5],-0.028
same,Proliferation_72hr,[5],0.002
same,SRB,[5],-0.00187
same,TIMP-1,[5],-0.007
same,TIMP-2,[5],0.202
same,CCL2/MCP-1,"/HDFNo, 1.00E0 nM",0.028
same,CD54/ICAM-1,"/HDFNo, 1.00E0 nM",0.066
same,CD106/VCAM-1,"/HDFNo, 1.00E0 nM",0.114
same,Collagen I,"/HDFNo, 1.00E0 nM",0.082
same,Collagen III,"/HDFNo, 1.00E0 nM",0.065
same,CCL2/MCP-1,"/HDFNo, 1.00E1 nM",0.027
same,CD54/ICAM-1,"/HDFNo, 1.00E1 nM",0.074
same,CD106/VCAM-1,"/HDFNo, 1.00E1 nM",0.048
same,Collagen I,"/HDFNo, 1.00E1 nM",0.041
same,Collagen III,"/HDFNo, 1.00E1 nM",0.032
same,CCL2/MCP-1,"/HDFNo, 1.00E2 nM",0.042
same,CD54/ICAM-1,"/HDFNo, 1.00E2 nM",-0.013
same,CD106/VCAM-1,"/HDFNo, 1.00E2 nM",0.065
same,Collagen I,"/HDFNo, 1.00E2 nM",0.061
same,Collagen III,"/HDFNo, 1.00E2 nM",0.079
same,CCL2/MCP-1,"/HDFNo, 1.00E3 nM",0.025
same,CD54/ICAM-1,"/HDFNo, 1.00E3 nM",0.014
same,CD106/VCAM-1,"/HDFNo, 1.00E3 nM",0.026
same,Collagen I,"/HDFNo, 1.00E3 nM",0.099
same,Collagen III,"/HDFNo, 1.00E3 nM",0.101

# From article PMC5224920, “Assessing the mechanism and therapeutic potential of modulators of the human Mediator complex-associated protein kinases” (eLife, 2016)
